Assay results: patent US20160058759A1, “GLUTAMINASE INHIBITOR THERAPY” (Board of Regents, The University of Texas System, priority 2014, published 2016)

How the values were obtained:
[1] = system: NRF2/KEAP1 mutant NSCLC cell lines; assay: Glutathione level after GLS inhibitors; assay type: cell-based
Experimental: Cells were allowed to settle and attach overnight. Cells plated in triplicate for each concentration and control examined. […] Cells were incubated with compound or relevant controls for 24 hours. On Day 2, 24 hours after treatment, cells were analyzed by GSH-Glo (PromegaV6912) per manufacturer's instructions. Plates were read in luminescence mode on a PheraStarFS plate reader. Duplicate wells were plated and then stained with crystal violet in order to correct for differences in cell growth as described below.

[2] = system: NRF2/KEAP1 mutant NSCLC cell lines; assay: ROS after GLS inhibitors; assay type: cell-based
Experimental: One day prior to the experiment, A549 cells were seeded in 6 well dishes (250,000 cells per well). The day of the experiment, cells were treated with 0.01% DMSO or 1 μM IACS-011393 for 24 hours. The following day, an allocated well was treated with hydrogen peroxide for 20-30 minutes as a positive control for ROS generation. All wells were then stained with CM-H2DCFDA (5 μM, Life Technologies) for 30 minutes at 37° C., washed with 1× PBS, harvested by trypsinization, and re-suspended in 400 μl phenol-free RPMI medium. Cells were strained through a […] cell strainer and analyzed using a flow cytometer (LSR Fortessa).

SMILES	glutathione [1]	ROS [2]
O=C(Cc1cccc(OC(F)(F)F)c1)Nc1ccc(CCCCc2nnc(NC(=O)Cc3ccccn3)s2)nn1 [CB-839, 2-(pyridin-2-yl)-N-{5-[4-(6-{2-[3-(trifluoromethoxy)phenyl]acetamido}pyridazin-3-yl)butyl]-1,3,4-thiadiazol-2-yl}acetamide]	reduction in glutathione	increase in ROS
O=C(Cc1ccccn1)Nc1nnc(CCS(=O)(=O)CCc2nnc(NC(=O)Cc3ccccn3)s2)s1 [compound 13, N,N′-(5,5′-(2,2′-sulfonylbis(ethane-2,1-diyl))bis(1,3,4-thiadiazole-5,2-diyl))bis(2-(pyridin-2-yl)acetamide)]	reduction in glutathione	increase in ROS
O=C(Cc1ccccc1)Nc1nnc(CCSCCc2nnc(NC(=O)Cc3ccccc3)s2)s1 [BPTES, N,N′-(5,5′-(2,2′-thiobis(ethane-2,1-diyl))bis(1,3,4-thiadiazole-5,2-diyl))bis(2-phenylacetamide)]	reduction in glutathione	increase in ROS
